Assay [1] concerns the target T1, CAII (Homo sapiens, UniProt P00918). Kind of assay: Single shot screen of chemoproteomic probes, intact protein LC-MS. The format is binding. On the set-up: purchased Sigma Aldrich C6624-500UG; host or cells: E. coli. The conditions noted are these: 1 μM CAII, 50 μM SF, 4 °C, 24 h. The text has this:
Hits from the CAII screen were progressed to chemoproteomic profiling to determine cellular target engagement and to measure their off-target profiles. SFs 2d and 2e were functionalized with an alkyne handle at the linking amide group to give probes 2j and 2k. A structurally similar negative control was also designed by substitution of the sulfonamide for a methoxy group, 2l (Figure 4a). […] The proteins engaged by these three probes were subsequently studied in HEK293T cells. […]
6.1. Single shot screen of chemoproteomic probes against CAII
The (synthesized and purified) active probes 2j, and 2k, as well as negative control 2l, were plated into a Greiner 384 white low volume plate from a 10 mM source in DMSO. Purified CAII diluted from original stock into a buffer made up of HEPES (pH 7.5, 25 mM) and NaCl (50 mM) in distilled MS-grade water (15 µL per well) was subsequently added across the plate. Final concentrations: 1 µM protein; 50 µM SF. The plate was sealed, centrifuged (1 min, 1000 rpm), incubated at 4 °C for 24 h, and subsequently analyzed by intact protein LC-MS. Modification yields were measured as 78% for 2j and 95% for 2k.
6.2. Chemoproteomics workflow […]
Chemoproteomics workflow: […]
Samples were incubated with acetylated NeutrAvidin agarose slurry (100 µL) (pre-washed three times with 0.2% SDS in HEPES (50 mM, pH 8.0)) on a combinatorial microlute plate (Porvair, 240002) for 2 h. The plate was centrifuged (1 min, 700 g) to remove supernatants.
The beads were washed three times with lysis buffer and 0.2% SDS in HEPES (50 mM, pH 8.0). The proteins were digested on-bead overnight at 37 °C with LysC (60 μL, 0.004 μg/μL) in HEPES (50 mM, pH 8.0). The supernatants were collected (1 min, 700 g) on a fresh plate and trypsin (30 μL, 0.006 μg/μL) in HEPES (50 mM, pH 8.0) was added to each sample. The samples were incubated for 4 h at 37 °C and acidified with 20% formic acid (10 μL).
The peptide samples were cleaned-up using C18 96-well plate (BioPureSPE Macro 96-Well, 100 mg PROTO C18, The Nest Group). The wells were conditioned with acetonitrile (300 μL) (centrifuged for 1 min at 50 g) and equilibrated twice with 0.1% TFA (300 μL) (centrifuged for 1 min at 150 g). 0.1% TFA (100 μL) was added to digest samples, and these were subsequently loaded on the plate (centrifuged for 1 min at 150 g). The samples were washed twice with 0.1% TFA (200 μL) (centrifuged for 1 min at 150 g). The plate was centrifuged once more at 200 g for 1 min. The peptides were eluted in two steps with 0.1% TFA (150 μL) in 50% acetonitrile

The subject of assay [2] is HEK293T cells. The assay can be described thus: Chemoproteomic profiling, proteins enriched by alkyne probes. The format is cell-based, human. The conditions noted are these: 10 μM probe, 1 h; log2 ratio ≥0.58, p-value ≤0.05, #unique peptides ≥2. How it is done:
(§1) HEK293T cells were treated for 1 h with probes 2j, 2k, or 2l (10 μM) or the DMSO vehicle. Competition-based experiments were also conducted where cells were pretreated with parent hits 2d (40 μM) or 2e (40 μM) for 1 h, before the addition of alkyne-containing probes 2j (10 μM) or 2k (10 μM), respectively. Following incubation, treated cells were lysed and conjugated with biotin-azide by Cu-click, and biotinylated proteins were enriched using NeutrAvidin beads. Enriched proteins were digested with LysC and trypsin, prior to analysis by LC–MS/MS (Figure 4b). […]
(§2) 6.2. Chemoproteomics workflow
(§3) Acetylation of NeutrAvidin agarose slurry:
NeutrAvidin agarose slurry (10 mL) (Thermo Fisher Scientific, 29204) was centrifuged (2 min, 2000 rpm) prior to removal of the supernatant. The beads were washed three times with PBS. PBS (9 mL) and Sulfo-NHS-acetate (482 μL, 400 mM in DMSO) (Thermo Fisher Scientific, 26777) were added, the beads were incubated at room temperature for 30 min on a falcon tube roller, and then centrifuged (2 min, 2000 rpm). Supernatant was removed and the incubation step with freshly made NHS-acetate was repeated. The reaction was quenched by adding Tris (2 mL, 1 M, pH 7.5). The beads were washed once with PBS and twice with 20% EtOH. 20% EtOH (5 mL) was added, and the beads were stored at 4 °C.
Chemoproteomics workflow:
HEK293T cell line (human origin, The Francis Crick Institute cell service) was used for this study. The cells were maintained at 37 °C with 5% CO2 in DMEM media supplemented with 10% fetal bovine serum and 1% L-Glutamine–Penicillin–Streptomycin solution (200 mM L-glutamine, 10,000 U/mL penicillin and 10 mg/mL streptomycin).
HEK293T cells were treated in triplicate with the parent compounds 2d and 2e (40 μM final concentration) or DMSO vehicle for 1 h at 37 °C in serum free media followed by a 1 h treatment with the probes 2j, 2k and 2l (10 μM final concentration) or DMSO vehicle.
(§4) Media was removed and cells were washed with PBS. […] Protein concentration of each lysate was determined using a BCA assay (Thermo Fisher Scientific, 23227). […]

Assay [3] concerns the target T1, CAII. Kind of assay: Chemoproteomic target engagement of CAII in cells. The format is cell-based. The settings on record: HEK293T cells, 10 μM probe, 1 h, vs DMSO. The method, then:
as §1, §2, §3
NeutrAvidin agarose slurry (10 mL) (Thermo Fisher Scientific, 29204) was centrifuged (2 min, 2000 rpm) prior to removal of the supernatant. The beads were washed three times with PBS. PBS (9 mL) and Sulfo-NHS-acetate (482 μL, 400 mM in DMSO) (Thermo Fisher Scientific, 26777) were added, the beads were incubated at room temperature for 30 min on a falcon tube roller, and then centrifuged (2 min, 2000 rpm). Supernatant was removed and the incubation step with freshly made NHS-acetate was repeated. The reaction was quenched by adding Tris (2 mL, 1 M, pH 7.5). […]
as §4

Assay [4] deals with BCL6. On the set-up: method as in PMID 34274316. The conditions noted are these: cited from earlier work.
For assay [5], the target named is BCL6 BTB/POZ domain (Homo sapiens, UniProt P41182, C67R/C84N/C8Q). Kind of assay: Conventional differential scanning fluorimetry (DSF). On the set-up: hBCL6-Flag 3Cmut (5-129) produced in house; FLAG (C); made in house. The format is binding. How it is done:
We subsequently analyzed protein-fragment interactions using differential scanning fluorimetry (DSF) to explore the impact of these binding events on protein stability.[45] […] […]; this illustrates the impact of covalent modification on protein–ligand binding. […]
8.2. Conventional differential scanning fluorimetry (DSF)
BCL6-SF covalent complex preparation:
SFs 2f–i, 2p, 2q, 2s, and 2t in DMSO-d 6 (200 mM stock) or pure DMSO-d 6 were added to crystallizable BCL6 BTB/POZ domain (10 µM) in 20 mM Tris pH 8.5 and 200 mM NaCl. The reactions were incubated at 20 °C for 6 h (meta-substituted benzamide fragments) or 24 h (azetidinyl/piperidinyl fragments). Final concentrations: 10 µM protein, 500 µM SF, DMSO 0.25% v/v in 200 µL. Unreacted compound and DMSO-d 6 were removed by buffer-exchanging protein solutions into 20 mM Tris pH 8.5, 200 mM NaCl and 5% v/v glycerol inside Vivaspin 500 PES Centrifugal Concentration units. The protein was concentrated to 0.6–1.3 mg/mL within the units, according to UV-vis absorption spectrophotometry via a Nanodrop ND-1000 instrument. Protein was flash frozen using a dry ice/ethanol bath prior to […]
Differential scanning fluorimetry assay:
GSK137 (40 mM stock) or pure DMSO-d 6 were added to crystallizable BCL6 BTB/POZ domain (11 µM) in 20 mM Tris pH 8.5, 200 mM NaCl and 5% v/v glycerol to give solutions containing: 11 µM protein, DMSO 0.63% v/v and 222 µM GSK137 (where applicable).
Concentrated protein-SF complexes were also thawed and diluted to 11 µM in 20 mM Tris pH 8.5, […] and 5% v/v glycerol.
SYPRO Orange dye (Invitrogen S6650) in extra dilution buffer (50×, eq. 1% v/v DMSO) was added to give assay-ready solutions with final concentrations: 10 µM protein, SYPRO 5×, DMSO 0.1% v/v in volume 80 µL for the protein-SF covalent complexes or 10 µM protein, SYPRO 5×, DMSO 0.6% v/v in volume 100 µL with and without 200 µM GSK137.
Each solution was aliquoted (3 × 20 µL) into wells of an opaque 384-well PCR microplate (Axygen PCR-384-LC480-W) and coated with silicone oil DC 200 (5 µL; Fluka Chemicals 85413). The microplate was centrifuged (1 min, 200 g) prior to insertion into a Fluodia T70 spectrophotometer (Photal Instruments). The fluorescence intensity was detected (emission wavelength: […]) as the plate instrument interior was heated from 27–75 °C using a temperature stepping mode (waiting time before measurement: 60 s; fluorescence measurement interval: 45 s). The approximate temperature gradient was 0.5 °C min-1.
The fluorescence intensity data from the individual replicates of each sample type were normalized and identically truncated within GraphPad Prism 5.0.4.11 These values were subsequently fitted to equation (4) corresponding to a Boltzmann sigmoid in order to obtain the melting temperature (“V50”; T m) of the protein:
Y=BOTTOM+((TOP+BOTTOM)/(1+exp((V50–X)/SLOPE))) (4)
The three obtained T m values were averaged to give a final T m value in each case. The normalized fluorescence data for the three replicates of each sample were averaged to yield a single dataset for each case, which were then plotted in GraphPad Prism 5.0.4 to give the plots shown in the manuscript.11
Table S9. Thermal melting temperatures of unmodified and covalently modified BCL6 BTB/POZ domain as determined by differential scanning fluorimetry measurements.
The arithmetic mean and standard deviation from three replicates are shown.
Hit Chemotype Protein Species Tm / °C ΔT m / °C […]
meta-Substituted Benzamide BCL6 + 2g 70.4 ± 0.3 +11.7
Azetidinyl Fragments BCL6 + 2h 55.5 ± 0.1 −3.2 […]
8.3. Protocol for kinetic analyzes (BCL6)
The (resynthesized and purified) SF hits (2f–i) were plated into seven Greiner 384 white low volume plate from a 10 mM source in DMSO. Differing volumes were added such that the final concentrations for each compound would be: 100, 50, 20, 10, or 5 µM after adding 15 µL of protein stock solution per well. […]
In general terms: In DSF a fluorescence change marks the thermal transition of the protein.

“And” between values parts separate entries of the source, which are not always exact repeats. Identical values can stand only once. “Also recorded” adds a separate entry of the source. Where only a bound is given, the exact number is not on record here.

As a reminder, the Tm is the temperature at which the thermal transition is half complete. In general, ΔTm refers to the shift of the melting midpoint relative to a reference.

On to `C#CCN(Cc1cccc(S(N)(=O)=O)c1)C(=O)Cc1ccc(S(=O)(=O)F)cc1` [2j], for which, in assay [1], the “covalent modification of purified CAII” value is “covalently modified CAII” and the modification yield was determined as 78%. In assay [2], the “number of proteins enriched by comparison to DMSO control” value was 523. Moreover, in assay [3], the “enrichment of CAII” value is given as “some enrichment”.
In the same order, the values of `C#CCN(CCc1ccc(S(N)(=O)=O)cc1)C(=O)Cc1ccc(S(=O)(=O)F)cc1` [2k] are “covalently modified CAII”, 95%, 501 and “some enrichment”.
On to `C#CCN(Cc1cccc(OC)c1)C(=O)Cc1ccc(S(=O)(=O)F)cc1` [2l], for which the “covalent modification of purified CAII” value in assay [1] is listed as “Negligible modification; also recorded: did not”. For the same compound, the “number of proteins enriched by comparison to DMSO control” value in assay [2] is reported as 447.
As for `Cc1ncccc1[C@H]1C[C@@H](c2cccc3nc(N)ccc23)Nc2c(F)cnn21` [GSK137, reference compound], the “biochemical pIC50” value in assay [4] is 8. Besides, the midpoint of thermal melting (Tm) in assay [5] (10 μM protein, covalent complex (500 μM SF, 6 or 24 h) or 200 μM GSK137, mean ± SD, three replicates) was above 72 °C. Besides, in assay [5] (relative to unmodified BCL6), the ΔTm is > 12.3 °C and ~12 °C.
